Results from article PMC3103432, “Effect of reverse transcriptase inhibitors on LINE-1 and Ty1 reverse transcriptase activities and on LINE-1 retrotransposition” (BMC Biochemistry, 2011).
Like-named read-outs stand apart in the source and are kept apart here. Marks after values point to notes of the source that are not given here.

Key:
[1] = molecular target: T1, Ty1 RT (Saccharomyces cerevisiae, UniProt Q99231); test: In vitro RT assay with recombinant Ty1 RT; assay type: biochemical; settings: for increase of Ty1 RT activity: at low concentrations; for high concentration at which Ty1 RT was inhibited: inhibited only at this high concentration
T1 construct: recombinant Ty1 RT, which required C-terminal residues of integrase for its RT activity; made in house; host or cells: E. coli BL21 (co-transformed with chaperone plasmid pG-Tf2)
T1 sequence (Q99231 1103-1755): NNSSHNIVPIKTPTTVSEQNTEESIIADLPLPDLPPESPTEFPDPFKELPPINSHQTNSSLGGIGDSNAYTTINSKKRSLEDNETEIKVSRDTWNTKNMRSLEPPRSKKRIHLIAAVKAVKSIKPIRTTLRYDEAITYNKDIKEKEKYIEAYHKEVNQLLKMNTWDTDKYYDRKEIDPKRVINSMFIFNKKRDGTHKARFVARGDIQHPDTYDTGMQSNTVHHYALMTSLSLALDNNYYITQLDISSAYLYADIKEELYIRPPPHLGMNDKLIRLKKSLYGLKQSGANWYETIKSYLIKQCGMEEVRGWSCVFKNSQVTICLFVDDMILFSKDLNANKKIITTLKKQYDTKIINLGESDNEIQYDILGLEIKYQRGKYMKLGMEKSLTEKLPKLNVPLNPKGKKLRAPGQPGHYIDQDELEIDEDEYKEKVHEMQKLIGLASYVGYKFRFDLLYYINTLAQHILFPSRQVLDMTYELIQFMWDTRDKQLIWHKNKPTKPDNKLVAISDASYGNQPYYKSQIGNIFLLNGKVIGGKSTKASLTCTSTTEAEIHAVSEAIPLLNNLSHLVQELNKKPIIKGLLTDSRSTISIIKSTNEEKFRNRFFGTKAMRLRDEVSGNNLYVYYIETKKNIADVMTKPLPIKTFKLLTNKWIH
Method: (§1) The RT assays for HIV-1 and L1 RT were performed in a 20 μl reaction mixtures containing 50 mM Tris-Cl (pH 8.0), 50 mM KCl, 5 mM MgCl2, 10 mM DDT, 0.01 U template/primer, 1 μl [α-^32P] dTTP or [α-^32P] dCTP (final concentration 0.17 μM, 3000 Ci/mmol, 10 mCi/ml) at 37°C for 30 min. Then the mixture was spotted on DE81 paper and washed three times with 2×SSC buffer for a total time of 30 min. The DE81 paper was dried and counted by scintillation counter Beckman LS6000SC. RT assay for Ty1 RT was done under the same buffer condition except that 20 mM MgCl2 was used and the reaction mixture was incubated at room temperature. In each reaction the amounts of L1, HIV-1 and Ty1 RTs with the same specific activity were added. To test the inhibition of the RT inhibitors, 1 μl inhibitor was included in the mixture to obtain the desired concentration. […] All assays were done at least in triplicate.

[2] = molecular target: T2, human L1 reverse transcriptase (MBP-RT fusion) (Homo sapiens, UniProt O00370); test: In vitro (cell-free) RT assay and kinetic analysis with recombinant L1 RT; assay type: biochemical; settings: for IC50: calculated as IC50 = Ki(1+ S/Km), read-out: IC50 against L1 RT; for Ki: competitive with respect to dTTP (AZTTP, d4TTP) or dCTP (ddCTP, 3TCTP), Lineweaver-Burk, read-out: Ki against L1 RT; for high concentration at which L1 RT was inhibited: inhibited only at this high concentration; for inhibition of L1 RT activity: concentrations as high as 500 μM
T2 construct: Human L1 ORF2 amino acid 238-1061 was inserted behind MBP gene in frame; made in house; host or cells: E. coli BL21
Method: as §1
The kinetic analysis was performed under the same conditions described above but with various concentrations of substrates and inhibitors as indicated in the text. Poly (rA)-oligo (dT)12-18 and [α-^32P] dTTP were used to analyze AZTTP and d4TTP. Poly (rI)-oligo (dC)12-18 and [α-^32P] dCTP were used to assay ddCTP and 3TCTP.

[3] = system: HeLa cells; test: Cell cytotoxicity of RT inhibitors; assay type: cell-based, human
Method: Untransfected Hela cells were plated on 10 cm plate (500 cells/plate) with and without RT inhibitors. Ten days later, cells were fixed to the plate and stained with 0.1% crystal violet. The number of colonies was counted to calculate colony formation ability. Colony formation ability of control assay without inhibitors was considered as 1.0 and colony formation ability in the presence of inhibitors was indicated as relative efficiency with respect to the control.

[4] = system: AMV RT, MLV RT, human DNA polymerases α, β, γ and Klenow fragment; settings: cited from earlier work
[5] = system: ORFeus-Hs (synthetic human L1) retrotransposition in HeLa cells; test: Cell-based L1 retrotransposition assay, ORFeus-Hs
Method: (§2) The cell-based retrotransposition assay was conducted as described. HeLa cells (a gift from Dr. John Moran, University of Michigan) were seeded in 6-well dishes in DMEM (2×10^5 cells/well). The next day cells were transfected with Fugene 6 according to the manufacturer's manual. Each transfection consisted of 96 μl Opti-Mem, 1 μg pWA195 DNA and 3 μl Fugene 6. Sixteen hours after transfection, the cells were trypsinized and transferred to a 6 cm plate in DMEM with 2.5 μg/ml puromycin and the RT inhibitors. Three days after puromycin selection, dead cells were removed and puromycin resistant cells were trypsinized and counted with a hemocytometer. The puromycin resistant cells were plated on a 10 cm plate (1×10^4 cells/plate) in 10 ml DMEM with 500 μg/ml G418. The RT inhibitors were added to the same concentration as in the puromycin selection. […] Two weeks later, G418 resistant cells were fixed to the plate and stained with 0.1% crystal violet. The number of G418 resistant colonies was counted to calculate retrotransposition frequency. Six independent assays were done for each RT inhibitor.

[6] = system: HIV-1 RT; settings: read-out: IC50 against HIV-1 RT; previously reported; cited from earlier work
[7] = system: ORFeus-Mm (synthetic mouse L1) retrotransposition; test: Cell-based L1 retrotransposition assay, ORFeus-Mm; settings: control = 1.0, normalized to cell viability
Method: as §2

[8] = molecular target: T1, Ty1 RT; parameters: method as in PMID 10816427, PMID 11577982; settings: ratio of ddGTP/GTP 0.2; cited from earlier work
[9] = system: HIV-1; parameters: method as in PMID 2413459; settings: cited from earlier work
[10] = system: HIV-1 mutants (substitutions at positions 103, 106, 181, 188 and 190); parameters: method as in PMID 17370068; settings: cited from earlier work
[11] = Homo sapiens, HeLa, 5 μM, control = 1.0, normalized to cell viability, read-out: Relative retrotransposition efficiency
[12] = Homo sapiens, HeLa, 50 μM, control = 1.0, normalized to cell viability, read-out: Relative retrotransposition efficiency
[13] = 50 μM, control = 1.0, normalized to cell viability

With Nc1ccn([C@@H]2CS[C@H](COP(=O)(O)OP(=O)(O)OP(=O)(O)O)O2)c(=O)n1 [3TCTP, 2',3'-dideoxy-3'-thiacytidine triphosphate] the “increase of Ty1 RT activity” value [1] was “up to 40%”, the IC50 [2] was 18.6 nM and the Ki [2] was 12.9 ± 0.16 nM.

For O=C1Nc2ccc(Cl)cc2[C@@](C#CC2CC2)(C(F)(F)F)O1 [EFV, efavirenz], the “high concentration at which Ty1 RT was inhibited” value [1] is given as 500 µM, the “concentration causing massive HeLa cell death” value [3] is given as 50 µM and the “activity against a variety of polymerases” value [4] is given as “inactive”. The “high concentration at which L1 RT was inhibited” value [2] was 500 µM, the activity at 5 µM [5, 11] was 28 ± 2% and the inhibition at 5 µM ([5]; Homo sapiens, HeLa, 5 μM, read-out: inhibition of L1 retrotransposition efficiency) was about 72%.

In the case of CC(C)Nc1cccnc1N1CCN(C(=O)c2cc3cc(NS(C)(=O)=O)ccc3[nH]2)CC1 [DLV, delavirdine], the “high concentration at which Ty1 RT was inhibited” value [1] is listed as 50 µM, the “concentration causing massive HeLa cell death” value [3] is listed as 100 µM and the IC50 [6] is listed as 260 nM. The “high concentration at which L1 RT was inhibited” value [2] was 50 µM, the activity at 5 µM [5, 11] was 63% and the activity at 50 µM [5, 12] was 28 ± 3%. It also gave an inhibition at 50 µM ([5]; Homo sapiens, HeLa, 50 μM, read-out: inhibition of L1 retrotransposition efficiency) of about 72%, a Relative retrotransposition efficiency ([7]; 5 μM) of 0.60 ± 0.05 and a Relative retrotransposition efficiency ([7]; 50 μM) of 0.02 ± 0.01.

In the case of Cc1cn([C@H]2C[C@H](O)[C@@H](COP(=O)(O)OP(=O)(O)OP(=O)(O)O)O2)c(=O)[nH]c1=O [dTTP], the Km ([2]; poly (rA)-oligo (dT)12-18, no inhibitor, read-out: Km value for dTTP) is reported as 0.83 µM.

In the case of Nc1ccn([C@H]2CC[C@@H](COP(=O)(O)OP(=O)(O)OP(=O)(O)O)O2)c(=O)n1 [ddCTP, 2'-3'-dideoxycytidine triphosphate], the “increase of Ty1 RT activity” value [1] is reported as “up to 40%”, the IC50 [2] is reported as 1.04 nM and the Ki [2] is reported as 0.72 ± 0.16 nM.

Cc1cn([C@H]2C=C[C@@H](CO)O2)c(=O)[nH]c1=O [d4T, 2'-3'-didehydro-2'-3'-dideoxythymidine] showed a Relative retrotransposition efficiency ([5]; 5 μM, control = 1.0, normalized to cell viability) of 0.50 ± 0.05, a Relative retrotransposition efficiency [5, 13] of 0.05 ± 0.04 and a Relative retrotransposition efficiency ([7]; 5 μM) of 0.28 ± 0.05. It also gave a Relative retrotransposition efficiency ([7]; 50 μM) of 0.01 ± 0.02.

In the case of Nc1nc2c(ncn2[C@H]2CC[C@@H](COP(=O)(O)OP(=O)(O)OP(=O)(O)O)O2)c(=O)[nH]1 [ddGTP], the “decrease of Ty1 RT activity” value [8] is given as 90%.

Compound Nc1ccn([C@H]2CS[C@@H](CO)O2)c(=O)n1 [3TC, 2',3'-dideoxy-3'-thiacytidine] has an activity at 5 µM [5, 11] of 8 ± 3% and an activity at 50 µM [5, 12] of 3 ± 3%.

Nc1ccn([C@H]2C[C@H](O)[C@@H](COP(=O)(O)OP(=O)(O)OP(=O)(O)O)O2)c(=O)n1 [dCTP] gave a Km ([2]; poly (rI)-oligo (dC)12-18, no inhibitor, read-out: Km value for dCTP substrate) of 0.38 µM.

Nc1nc(=O)n(C2CSC(CO)O2)cc1F (stereo not shown) [FTC, 4-amino-5-fluoro-1-[2-(hydroxymethyl)-1,3-oxathiolan-5-yl]-pyrimidin-2-one] showed an activity at 5 µM [5, 11] of 25 ± 1%, an activity at 50 µM [5, 12] of 12 ± 4% and a Relative retrotransposition efficiency ([7]; 5 μM) of 0.34 ± 0.01. The Relative retrotransposition efficiency ([7]; 50 μM) was 0.26 ± 0.04.

For Cc1cn([C@H]2C[C@H](N=[N+]=[N-])[C@@H](CO)O2)c(=O)[nH]c1=O [AZT, azidothymidine], the “concentration completely inhibiting HIV-1 production” value [9] is listed as 1 to 3 µM, the activity at 5 µM [5, 11] is listed as 62 ± 6% and the activity at 50 µM [5, 12] is listed as 23 ± 4%. It also gave a Relative retrotransposition efficiency ([7]; 5 μM) of 0.75 ± 0.08 and a Relative retrotransposition efficiency ([7]; 50 μM) of 0.16 ± 0.02.

In the case of Cc1ccnc2c1NC(=O)c1cccnc1N2C1CC1 [NVP, nevirapine], the “inhibition of Ty1 RT activity” value ([1]; concentrations as high as 500 μM) is listed as “no inhibition”, the “reduction of susceptibility in HIV-1 mutants” value [10] is listed as “more than 50 fold” and the “activity against a variety of polymerases” value [4] is listed as “inactive”. The “inhibition of L1 RT activity” value [2] was “no inhibition”, the “inhibition of L1 RT activity” value ([2]; listed as nevirapine) was “no effect” and the activity at 5 µM [5, 11] was 108 ± 13%. It also gave an activity at 50 µM [5, 12] of 89 ± 3%, an activity at 200 µM ([5]; Homo sapiens, HeLa, 200 μM, control = 1.0, normalized to cell viability, read-out: Relative retrotransposition efficiency) of 89% and an activity at 400 µM ([5]; Homo sapiens, HeLa, 400 μM, control = 1.0, normalized to cell viability, read-out: Relative retrotransposition efficiency) of 87 ± 3%. The “decrease of L1 transposition frequency” value ([5]; at all tested concentrations) was ~ 10%.

With Nc1ccn([C@H]2CC[C@@H](CO)O2)c(=O)n1 [ddC, 2'-3'-dideoxycytidine] the Relative retrotransposition efficiency [5, 13] was <0.005^c, the Relative retrotransposition efficiency ([7]; 5 μM) was <0.0025^c and the Relative retrotransposition efficiency ([7]; 50 μM) was <0.0025^c.

In the case of O=c1[nH]cnc2c1ncn2[C@H]1CC[C@@H](CO)O1 [ddI, 2'-3'-dideoxyinosine], the Relative retrotransposition efficiency [5, 13] is reported as <0.005^c, the Relative retrotransposition efficiency ([7]; 5 μM) is reported as <0.0025^c and the Relative retrotransposition efficiency ([7]; 50 μM) is reported as <0.0025^c.

With Cc1cn([C@H]2C=C[C@@H](COP(=O)(O)OP(=O)(O)OP(=O)(O)O)O2)c(=O)[nH]c1=O [d4TTP, 2'-3'-didehydro-2'-3'-dideoxythymidine triphosphate] the IC50 [2] was 0.88 nM and the Ki [2] was 0.73 ± 0.22 nM.

With Cc1cn([C@H]2C[C@H](N=[N+]=[N-])[C@@H](CO[P@](=O)(O)O[P@](=O)(O)OP(=O)(O)O)O2)c(=O)[nH]c1=O [AZTTP, azidothymidine triphosphate] the “increase of Ty1 RT activity” value [1] was “up to 40%”, the IC50 [2] was 19.8 nM and the Ki [2] was 16.4 ± 4.21 nM.

Compound Nc1nc(NC2CC2)c2ncn(C3C=C[C@H](CO)C3)c2n1 (stereo partly drawn) [ABC, [(1R)-4-[2-amino-6-(cyclopropylamino)purin-9-yl]-1-cyclopent-2-enyl]methanol] has an activity at 5 µM [5, 11] of 74 ± 6%, an activity at 50 µM [5, 12] of 20 ± 4% and a Relative retrotransposition efficiency ([7]; 5 μM) of 0.80 ± 0.05. It also gave a Relative retrotransposition efficiency ([7]; 50 μM) of 0.15 ± 0.03.
